The record followed here is patent publication US5428029A, “Vitamin D3 fluorinated analogs” (Hoffmann-La Roche Inc., priority 1993, dated 1995).

Like-named read-outs stand apart in the source and are kept apart here. Bounds are passed on as bounds.

In one test the test system is T47-D cells. Description: Tetrazolium based MTT assay, inhibition of cell growth, T47-D. Conditions: Homo sapiens, T47D. How it is done:
(§1) TETRAZOLIUM BASED MTT ASSAY
T47-D (breast ductal carcinoma) were grown in RPMI-1640 medium supplemented with 10 μg/ml bovine insulin and 10% fetal bovine serum (FBS).
(§2) Cells were grown in appropriate medium to late log phase (about 80% confluency). T47-D or MCF-7 cells were then trypsinized and seeded at 4,000 or 2,000 cells/well, respectively.
(§3) Tetrazolium Based MTT Assay:
(§4) At 24 hours post seeding, serial dilutions of ethanol-solubilized drugs are prepared in the same medium and added to triplicate wells at a final concentration of 1,000 to 0.1 nM and 0.1% ethanol. On days 3 to 7 post drug addition, 50 μl of a 5 mg/ml MTT solution (3-(4,5-dimethylthiazol-2-yl)-2,5-diphenyl tetrazolium bromide in phosphate-buffered saline) is added to each well and incubation is continued at 37° C. for 2.5 hours. The plates are then spun briefly by centrifugation at 800 xg for 5 minutes, medium is aspirated from wells, and 50 μl ETOH/well is added to dissolve the formazan formed during the incubation period with MTT. After a 15 minute shaking, the optical density is determined for each well in an automatic plate reader at 570 and 660 nm. Percent inhibition of cell growth is calculated by comparing optical densities of cells treated with test compounds to those of cells treated only with 0.1% ethanol. IC50 values are determined based on the Reed and Muench formula (Am. J. Hyg. 27:493-497 1938) and the results of two independent experiments are presented below: […]
(In general: Formazan colour is commonly taken as a measure of viable cells.)

A further test deals with MCF-7 cells. Description: Tetrazolium based MTT assay, inhibition of cell growth, MCF-7. Conditions: Homo sapiens, MCF7, Exp. 2. How it is done: as §1
MCF-7 (breast adenocarcinoma) were grown in MEM (Eagle) supplemented with non-essential amino acids, 1 mM sodium pyruvate, […] bovine insulin and 10% FBS
as §2, §3, §4

A further test has as its system sebaceous cells. Nature of the test: Inhibition of proliferation of sebaceous cells in vitro. It is filed as cell-based. Conditions: Homo sapiens, read-out: ED50 (amount of compound necessary to inhibit the proliferation of the sebaceous cells by 50%). The procedure:
Sebaceous cells were isolated from adult human sebaceous glands, derived from facial skin removed during cosmetic surgery. This method is described in an article by Doran et al. in J. Invest. Dermatol. 96:341-348 (1991).
The cells were cultured in Iscove's medium containing 10% fetal calf serum and 4 μg/ml dexamethasone on a layer of growth-arrested 3T3 mouse fibroblasts.
Cells were plated in medium without the test compound and then given the compound in fresh medium 24-48 hours after the initial plating. The cultures were given fresh medium, containing the test compound, every 48 hours. On the day of harvesting, the cultures were rinsed with 0.03% ethylenediamine tetraacetic acid (EDTA) in phosphate buffered saline (PBS), to remove only the 3T3 fibroblasts. The remaining sebocyte colonies were incubated in 0.05% trypsin/0.03% EDTA to create a single cell suspension of sebocytes. The cells were diluted, mixed vigorously to maintain a single cell suspension, and counted in a hemocytometer.
All compounds were handled in the following manner. Stock solutions were made up as 10^-2 M solutions in degassed 100% ethanol and stored at -20° C. in the dark. Solutions were never used after storage of more than a month. During experimental use the solutions, which had been aliquoted, were thawed once and used by diluting directly into complete medium to the appropriate concentration. […]

Another test concerns HL-60 tumor cell line. Nature of the test: HL-60 Differentiation Assay. Conditions: 4 days; for EC50: Homo sapiens, 96 h, HL-60 differentiation, read-out: Approximate ED50. It is filed as cell-based, human. How it is done:
HL-60 Differentiation Assay:
The HL-60 tumor cell line was originally derived from a patient with promyleocytic leukemia and purchased from American Type Culture Collection (ATCC CCL240). […] For experimentation, cells were seeded at 0.9×10^6 cells per 25 cm^2 flask in medium supplemented with 0.25 mM sodium ascorbate. […] All compounds were handled in the following manner. Stock solutions were made of 10^-3 M solutions in ethanol and stored in amber vials overlaid with argon at -20° C. Stock solutions were diluted into medium at concentrations indicated. All flasks were supplemented with vehicle at a concentration of 0.1% ethanol. Control flasks were supplemented with vehicle alone at a concentration of 0.1% ethanol. Flasks were incubated upright for 4 days in 5% CO 2 at 37° C. On day 4, a 1 ml aliquot of cells was removed from the flasks, centrifuged for about 10 minutes, the media removed and the cells resuspended in a 0.2 ml of solution of nitroblue tetrazolium/phorbol 12 myristate 13-acetate (NBT/TPA) in media prepared on the day of enumeration as follows. Nitroblue tetrazolium was dissolved in media at 1 mg/ml. To this solution was added TPA to a final concentration of 100 ng/ml. This solution was kept in a covered vial on ice. The cells were suspended and incubated at 37° C. for 30 min. prior to transferring to ice. An aliquot was removed and the cells are counted using a hemocytometer. Cells without pigmented granules are judged to be undifferentiated while those containing blue black formazan (indicating conversion of NBT) granules were scored as differentiated. Results are expressed as percent differentiated cells by calculating the ratio of the number of dark cells per total number of cells counted.

Test [1] has as its system human neonatal keratinocytes. Description: Human Keratinocyte Antiproliferative Assay. It is filed as cell-based. The settings on record: for IC50: read-out: average ED50 (Dose that would obtain 50% of the number of cells as compared to the control). The procedure: Human Keratinocyte Antiproliferative Assay
Cultures were obtained from neonatal foreskin epithelial keratinocytes using standard procedures.
Human neonatal foreskins were collected by circumcision and placed into tubes containing Dulbecco's minimum essential Media (DMEM) with 10% serum. Upon arrival at the laboratory, they were mechanically trimmed of excess dermis, and treated with a solution of trypsin/ethylenediamine tetraacetic acid (EDTA) (0.05%/0.02%) at 4° C. overnight. The epidermis was stripped from the dermis, agitated in buffered saline to remove basal keratinocytes and the stratum corneum later removed. […] The cultures are incubated in humidified chambers with 5% CO2 at 37° C. with refeeding fresh media 2 to 3 times per week.
Antiproliferation Assay Protocol:
Approximately twenty-four hours after passage, the cells were refed with fresh KGM media supplemented to 1.5 mM CaCl2 that contains test compound or vehicle. Solutions of test compounds were prepared as follows: 1 milligram quantities were received in amber glass vials and stored at -20° C. Sufficient 100% ethanol was added directly to vials to obtain a millimolar solution that was subsequently aliquoted into small amber vials, overlayed with argon gas and stored at -20° C. Each stock solution was thawed once, used and discarded. Stock solutions were used within 4 to 6 weeks. Aliquots from the stock solution were diluted directly into medium and then serially diluted from micromolar to picomolar concentrations. […] Control wells are supplemented with vehicle alone at the highest concentration such as 0.1% ethanol. At the termination of the experiment prior to the cultures reaching confluency, the cells were enumerated by the following procedure. Dishes were washed with phosphate buffered saline, and then incubated with trypsin/EDTA solution for 30 minutes. Cells were suspended and an aliquot placed into isotonic buffered saline and counted on an electronic particle counter (Coulter Counter). The counter was periodically calibrated for the correct size of keratinocytes. Each well was counted in triplicate.

Setting [2] is: Homo sapiens, Keratinocyte, read-out: % of Control.

For the molecule `C[C@H](C/C=C/C(O)(C(F)(F)F)C(F)(F)F)C1=CC[C@H]2/C(=C/C=C3C[C@@H](O)C[C@H](O)C3)CCC[C@]12C` [1,25-Dihydroxy-16,23E-diene-26,27-hexafluoro-19-norcholecalciferol], the IC50 turned out to be 0.26 nM with T47-D cells (Exp. 1), 2.2 nM with T47-D cells (Exp. 2) and 0.15 nM in the test with MCF-7 cells.
In the case of `C=C1/C(=C\C=C2/CCC[C@]3(C)C([C@H](C)C/C=C/C(O)(C(F)(F)F)C(F)(F)F)=CC[C@@H]23)C[C@@H](O)C[C@@H]1O` [1,25-Dihydroxy-16,23E-diene-26,27-hexafluorocholecalciferol], the IC50 in the test on sebaceous cells (compared to vehicle treated control culture) was less than 1 nM; in the test with T47-D cells (Exp. 1), less than 0.1 nM; with T47-D cells (Exp. 2), 0.9 nM; in test [1] (Keratinocyte, human keratinocytes) it was 2 nM; in the test on MCF-7 cells, 0.05 nM. The “Percent Positive Cells” value in the test on HL-60 tumor cell line (Dose 0.1 nM) is recorded as 6.0%; with HL-60 tumor cell line (Dose 0.3 nM), 30.5%; in the test on HL-60 tumor cell line (Dose 1.0 nM) it was 63.0%; with HL-60 tumor cell line (Dose 10.0 nM), 79.0%; in the test with HL-60 tumor cell line (Dose 100.0 nM), 89.5%. The EC50 in the test with HL-60 tumor cell line was roughly 0.6 nM. Further, the “Avg Cell No.” value in test [1] (Dose 0.0001 nM) was 4.57E+05; in test [1] (Dose 0.001 nM), 4.41E+05; in test [1] (Dose 0.01 nM), 5.42E+05; in test [1] (Dose 0.1 nM), 5.03E+05; in test [1] (Dose 1.0 nM), 2.87E+05; in test [1] (Dose 10 nM) it was 2.29E+05. In addition, the “Avg Cell No.” value in test [1] (Dose 100 nM) came out at 2.03E+05; in test [1] (Dose 1000 nM) it was 3.04E+05. In addition, the activity at 100 fM in test [1] (Homo sapiens, Keratinocyte, Dose 0.0001 nM, read-out: % of Control) came out at 93.7%. Moreover, the activity at 1 pM in test [1] (Homo sapiens, Keratinocyte, Dose 0.001 nM, read-out: % of Control) turned out to be 90.3%. Also, the activity at 10 pM in test [1] (Homo sapiens, Keratinocyte, Dose 0.01 nM, read-out: % of Control) was determined as 111%. The activity at 0.0001 µM in test [1] (Homo sapiens, Keratinocyte, Dose 0.1 nM, read-out: % of Control) is 103%. For the same molecule, the activity at 0.001 µM in test [1] (Homo sapiens, Keratinocyte, Dose 1.0 nM, read-out: % of Control) amounted to 58.7%. In test [1] (Homo sapiens, Keratinocyte, Dose 10 nM, read-out: % of Control), the activity at 0.01 µM turned out to be 47%. The activity at 0.1 µM in test [1] (Homo sapiens, Keratinocyte, Dose 100 nM, read-out: % of Control) worked out at 41.6%. The activity at 1 µM in test [1] (Homo sapiens, Keratinocyte, Dose 1000 nM, read-out: % of Control) turned out to be 6.23%.
In the case of `C=C1/C(=C\C=C2/CCC[C@]3(C)C([C@H](C)CC#CC(O)(C(F)(F)F)C(F)(F)F)=CC[C@@H]23)C[C@@H](O)C[C@@H]1O` [1,25-dihydroxy-16-ene-23 yne-26,27-hexafluoro-cholecalciferol, reference compound], the IC50 with T47-D cells (Exp. 1) was 0.63 nM; in the test with T47-D cells (Exp. 2) it was 0.95 nM; in the test with MCF-7 cells, 0.42 nM.
For the molecule `C=C1/C(=C\C=C2/CCC[C@]3(C)[C@@H]([C@H](C)CCCC(C)(C)O)CC[C@@H]23)C[C@@H](O)C[C@@H]1O` [1,25-dihydroxy-cholecalciferol, 1,25-dihydroxycholecalciferol, reference compound], the IC50 in the test with sebaceous cells is 50 nM; in test [1] (Homo sapiens, Keratinocyte), 300 nM. Further, the “Percent Positive Cells” value with HL-60 tumor cell line (Dose 0.1 nM) turned out to be 2.0%; in the test with HL-60 tumor cell line (Dose 0.3 nM) it was 5.0%; in the test on HL-60 tumor cell line (Dose 1.0 nM), 3.5%; in the test on HL-60 tumor cell line (Dose 10.0 nM), 26.0%; with HL-60 tumor cell line (Dose 100.0 nM), 84.0%. Further, the EC50 in the test with HL-60 tumor cell line is roughly 25 nM. The “Avg Cell No.” value in test [1] (Dose 10 nM) is given as 4.60E+05; in test [1] (Dose 30 nM) it was 3.90E+05; in test [1] (Dose 100 nM), 3.12E+05; in test [1] (Dose 300 nM), 2.51E+05; in test [1] (Dose 1000 nM) it was 7.19E+05. Moreover, the activity at 0.01 µM in test [1] (setting [2]) was 94.3%. The activity at 0.03 µM in test [1] (setting [2]) is 79.9%. For the same molecule, in test [1] (setting [2]), the activity at 0.1 µM worked out at 64%. Further, in test [1] (setting [2]), the activity at 0.3 µM was determined as 51.4%. The activity at 1 µM in test [1] (setting [2]) was found to be 14.7%.
With `C=C1/C(=C\C=C2/CCC[C@]3(C)C([C@H](C)C/C=C/C(O)(C(F)(F)F)C(F)(F)F)=CC[C@@H]23)C[C@@H](O)C[C@@H]1F` [1α-Fluoro-25-hydroxy-16,23E-diene-26,27-hexafluorocholecalciferol], the IC50 in the test with MCF-7 cells is 0.38 nM.
